Legend:
CD3+ T cells = assay: Flow cytometry, Propidium iodide/CD3 staining to verify drug toxicity; conditions: for toxicity in gated CD3+ T cells compared to DMSO treatment only: three concentrations, donors D186, D317, D93
PBMC stimulated by LPS = assay: ELISA cytokines, frozen PBMCs stimulated by LPS; format: cell-based, human; conditions: for production of LPS-stimulated IL-6 / production of LPS-stimulated IL-10 / production of LPS-stimulated IL-23 / production of LPS-stimulated TNF-α: dose response, three concentrations, donors D186, D317, D93, versus LPS alone
Method: PBMC were purified by Ficoll-Hypaque gradient centrifugation (Pharmacia, Piscataway, NJ) and stimulated after freshly isolated as described, or cryopreserved in cryoprotective medium consisting of 90% fetal bovine serum (FBS) in combination with 10% dimethyl sulfoxide (DMSO) at 20 to 30 million cells per vial, and thawed for later stimulation as described.
Cytokine dose-response analysis was performed using linear regression model testing dose (ordinal variable) and adjusting for the individual donors.

PBMCs = assay: Flow cytometry, FSC versus SSC gating, percentage of PBMCs; conditions: for percentage of PBMCs (FSC versus SSC gating): 24 hrs
[1] = tested on: Monocytes stimulated by LPS; assay: ELISA cytokines, monocytes stimulated by LPS; format: cell-based, human; conditions: for IL-16 levels / IL-6 / IL-10 / IL-23 / TNF-α: 5000 ng/mL, LPS; for IL-6 / IL-10 / IL-23 / TNF-α: donors D186, D317, D93
From the text: For all experiments, peripheral blood mononuclear cells (PBMC) were isolated either from healthy blood donors as above or purchased from HemaCare as Leukopaks (D186, D317 and D93). PBMC were purified by Ficoll-Hypaque gradient centrifugation (Pharmacia, Piscataway, NJ) and stimulated after freshly isolated as described, or cryopreserved in cryoprotective medium consisting of 90% fetal bovine serum (FBS) in combination with 10% dimethyl sulfoxide (DMSO) at 20 to 30 million cells per vial, and thawed for later stimulation as described. For studies with enriched monocytes, PBMC were cultured in 1% FBS in RPMI 1640, and adhered to sterile plastic tissue culture plates for 1-2 hours; followed by washing off nonadherent PBMC. Remaining adherent monocytes were stimulated as described.
Isolated PBMCs were washed once in 1% FCS RPMI and re-suspended in RPMI-1640 (ThermoFisher Scientific) in 1-2% FCS RPMI. For monocyte isolation, 2×10^6 PBMCs per well were plated in 24-well tissue culture treated plate (ThermoFisher Scientific) at 1 ml each well. Monocytes were allowed to adhere in a 5% CO2 container at 37° C. for 2 hr. Nonadherent cells were removed by thorough washing 2 times with 1% FCS RPMI-1640.

[2] = tested on: CD14+ cells for monocytes; assay: Flow cytometry, Propidium iodide/CD14 staining to verify drug toxicity
4T1 cells = assay: Killing of 4T1 cells; format: cell-based, mouse
[3] = tested on: T cells activated using beads; assay: ELISA cytokines, T cell activation with beads; format: cell-based, human; conditions: 5000 ng/ml; for IFN-γ production / IL10 production / IL-4 levels / TNF-α production: activated cells (Bead); for IL-2 production: activated cells, compared to negative control
Method: Conditioned media were tested undiluted, or diluted 1:3 and 1:9 to determine tumor necrosis factor (TNF) α concentration.

SARS-COV-2 Mpro = SARS-COV-2 Mpro (Severe acute respiratory syndrome coronavirus 2, UniProt P0DTD1); conditions: cited from earlier work
T cells = conditions: cells from mice; cited from earlier work

SMILES: CC(C)(C)[C@H](NC(=O)C(F)(F)F)C(=O)N1C[C@H]2[C@@H]([C@H]1C(=O)N[C@H](C#N)C[C@@H]1CCNC1=O)C2(C)C [NMV, nirmatrelvir]
- cells double positive for Propidium iodide (PI) and CD3 (dead cells) (CD3+ T cells; Donor 93, 1250 ng): 19.2%
- cells double positive for Propidium iodide (PI) and CD3 (dead cells) (CD3+ T cells; Donor 93, 2500 ng): 17.1%
- cells double positive for Propidium iodide (PI) and CD3 (dead cells) (CD3+ T cells; Donor 93, 5000 ng): 16.0%
- cells double positive for Propidium iodide (PI) and CD3 (dead cells) (CD3+ T cells; Donor 186, 1250 ng): 29.9%
- cells double positive for Propidium iodide (PI) and CD3 (dead cells) (CD3+ T cells; Donor 186, 2500 ng): 31.1%
- cells double positive for Propidium iodide (PI) and CD3 (dead cells) (CD3+ T cells; Donor 186, 5000 ng): 28.5%
- cells double positive for Propidium iodide (PI) and CD3 (dead cells) (CD3+ T cells; Donor 317, 1250 ng): 17.9%
- cells double positive for Propidium iodide (PI) and CD3 (dead cells) (CD3+ T cells; Donor 317, 2500 ng): 16.9%
- cells double positive for Propidium iodide (PI) and CD3 (dead cells) (CD3+ T cells; Donor 317, 5000 ng): 17.1%
- toxicity in gated CD3+ T cells compared to DMSO treatment only (CD3+ T cells): similar
- IL-23 levels (PBMC stimulated by LPS; 5000 ng/ml, LPS, three donors): Two of three donors already had no detectable IL-23 levels
- production of LPS-stimulated IL-6 (PBMC stimulated by LPS): diminished
- production of LPS-stimulated IL-10 (PBMC stimulated by LPS): diminished
- production of LPS-stimulated IL-23 (PBMC stimulated by LPS): diminished
- production of LPS-stimulated TNF-α (PBMC stimulated by LPS): diminished
- cytokines except IL-1β (IL-6, IL-10, IL-23, TNF-α) (PBMC stimulated by LPS; frozen PBMCs stimulated with LPS): decrease
- percentage of PBMCs (FSC versus SSC gating) (PBMCs; Donor 93, 1250 ng): 74.8%
- percentage of PBMCs (FSC versus SSC gating) (PBMCs; Donor 93, 2500 ng): 76.2%
- percentage of PBMCs (FSC versus SSC gating) (PBMCs; Donor 93, 5000 ng): 54.6%
- percentage of PBMCs (FSC versus SSC gating) (PBMCs; Donor 186, 1250 ng): 52.8%
- percentage of PBMCs (FSC versus SSC gating) (PBMCs; Donor 186, 2500 ng): 44.8%
- percentage of PBMCs (FSC versus SSC gating) (PBMCs; Donor 186, 5000 ng): 47.7%
- percentage of PBMCs (FSC versus SSC gating) (PBMCs; Donor 317, 1250 ng): 55.4%
- percentage of PBMCs (FSC versus SSC gating) (PBMCs; Donor 317, 2500 ng): 64.4%
- percentage of PBMCs (FSC versus SSC gating) (PBMCs; Donor 317, 5000 ng): 55.9%
- Peripheral Blood Mononuclear Cells' viability (PBMCs; all different concentrations, three donors): Do Not Affect
- IL-16 levels ([1]; donors 317 and 93): increasing levels
- IL-6 [1]: decrease
- IL-10 [1]: decrease
- IL-23 [1]: decrease
- TNF-α [1]: decrease
- cells double positive for Propidium iodide (PI) and CD14 (dead cells) ([2]; Donor 93, 1250 ng): 0.90%
- cells double positive for Propidium iodide (PI) and CD14 (dead cells) ([2]; Donor 93, 2500 ng): 0.74%
- cells double positive for Propidium iodide (PI) and CD14 (dead cells) ([2]; Donor 93, 5000 ng): 0.64%
- cells double positive for Propidium iodide (PI) and CD14 (dead cells) ([2]; Donor 186, 1250 ng): 0.75%
- cells double positive for Propidium iodide (PI) and CD14 (dead cells) ([2]; Donor 186, 2500 ng): 1.28%
- cells double positive for Propidium iodide (PI) and CD14 (dead cells) ([2]; Donor 186, 5000 ng): 0.74%
- cells double positive for Propidium iodide (PI) and CD14 (dead cells) ([2]; Donor 317, 1250 ng): 0.37%
- cells double positive for Propidium iodide (PI) and CD14 (dead cells) ([2]; Donor 317, 2500 ng): 0.31%
- cells double positive for Propidium iodide (PI) and CD14 (dead cells) ([2]; Donor 317, 5000 ng): 0.32%
- killing of 4T1 cells (4T1 cells): killed 4T1 cells in a dose responsive manner
- IFN-γ production [3]: lower
- IL10 production [3]: lower
- IL-4 levels [3]: lower when compared to all groups with activated cells
- TNF-α production [3]: low
- TNF-α production ([3]; listed as NMR): lower
- IL-2 production [3]: elevated

SMILES: CC(C)c1nc(CN(C)C(=O)N[C@H](C(=O)N[C@@H](Cc2ccccc2)C[C@H](O)[C@H](Cc2ccccc2)NC(=O)OCc2cncs2)C(C)C)cs1 [RTV, ritonavir]
- cells double positive for Propidium iodide (PI) and CD3 (dead cells) (CD3+ T cells; Donor 93, 1250 ng): 19.5%
- cells double positive for Propidium iodide (PI) and CD3 (dead cells) (CD3+ T cells; Donor 93, 2500 ng): 19.8%
- cells double positive for Propidium iodide (PI) and CD3 (dead cells) (CD3+ T cells; Donor 93, 5000 ng): 19.5%
- cells double positive for Propidium iodide (PI) and CD3 (dead cells) (CD3+ T cells; Donor 186, 1250 ng): 27.9%
- cells double positive for Propidium iodide (PI) and CD3 (dead cells) (CD3+ T cells; Donor 186, 2500 ng): 28.9%
- cells double positive for Propidium iodide (PI) and CD3 (dead cells) (CD3+ T cells; Donor 186, 5000 ng): 28.6%
- cells double positive for Propidium iodide (PI) and CD3 (dead cells) (CD3+ T cells; Donor 317, 1250 ng): 18.1%
- cells double positive for Propidium iodide (PI) and CD3 (dead cells) (CD3+ T cells; Donor 317, 2500 ng): 17.5%
- cells double positive for Propidium iodide (PI) and CD3 (dead cells) (CD3+ T cells; Donor 317, 5000 ng): 17.8%
- toxicity in gated CD3+ T cells compared to DMSO treatment only (CD3+ T cells): similar
- activity against SARS-COV-2 Mpro (SARS-COV-2 Mpro): lacks activity
- production of LPS-stimulated IL-6 (PBMC stimulated by LPS): no effect
- production of LPS-stimulated IL-10 (PBMC stimulated by LPS): no effect
- production of LPS-stimulated IL-23 (PBMC stimulated by LPS): no effect
- production of LPS-stimulated TNF-α (PBMC stimulated by LPS): no effect
- percentage of PBMCs (FSC versus SSC gating) (PBMCs; Donor 93, 1250 ng): 60.4%
- percentage of PBMCs (FSC versus SSC gating) (PBMCs; Donor 93, 2500 ng): 62.9%
- percentage of PBMCs (FSC versus SSC gating) (PBMCs; Donor 93, 5000 ng): 55.9%
- percentage of PBMCs (FSC versus SSC gating) (PBMCs; Donor 186, 1250 ng): 48.0%
- percentage of PBMCs (FSC versus SSC gating) (PBMCs; Donor 186, 2500 ng): 51.3%
- percentage of PBMCs (FSC versus SSC gating) (PBMCs; Donor 186, 5000 ng): 44.9%
- percentage of PBMCs (FSC versus SSC gating) (PBMCs; Donor 317, 1250 ng): 61.3%
- percentage of PBMCs (FSC versus SSC gating) (PBMCs; Donor 317, 2500 ng): 56.2%
- percentage of PBMCs (FSC versus SSC gating) (PBMCs; Donor 317, 5000 ng): 57.4%
- IL2, IFN-gamma and TNF-alpha secretion (T cells): decreasing
- IL-16 levels ([1]; donor186): Slightly decreased
- IL-16 levels ([1]; donors 317 and 93): increasing levels
- IL-6 [1]: decrease
- IL-10 [1]: decrease
- IL-23 [1]: decrease
- TNF-α [1]: decrease
- IL-1β ([1]; monocytes, 5000 ng/ml): decreased
- cells double positive for Propidium iodide (PI) and CD14 (dead cells) ([2]; Donor 93, 1250 ng): 0.90%
- cells double positive for Propidium iodide (PI) and CD14 (dead cells) ([2]; Donor 93, 2500 ng): 1.12%
- cells double positive for Propidium iodide (PI) and CD14 (dead cells) ([2]; Donor 93, 5000 ng): 0.81%
- cells double positive for Propidium iodide (PI) and CD14 (dead cells) ([2]; Donor 186, 1250 ng): 2.14%
- cells double positive for Propidium iodide (PI) and CD14 (dead cells) ([2]; Donor 186, 2500 ng): 1.71%
- cells double positive for Propidium iodide (PI) and CD14 (dead cells) ([2]; Donor 186, 5000 ng): 1.71%
- cells double positive for Propidium iodide (PI) and CD14 (dead cells) ([2]; Donor 317, 1250 ng): 0.42%
- cells double positive for Propidium iodide (PI) and CD14 (dead cells) ([2]; Donor 317, 2500 ng): 0.38%
- cells double positive for Propidium iodide (PI) and CD14 (dead cells) ([2]; Donor 317, 5000 ng): 0.44%
- killing of 4T1 cells (4T1 cells): killed 4T1 cells in a dose responsive manner
- IFN-γ production [3]: higher levels
- IL10 production [3]: higher
- IL-4 levels [3]: higher
- TNF-α production [3]: high levels
- IL-2 production [3]: elevated

From patent publication US20260272891A1, “TREATMENT OF AUTOIMMUNE DISEASES AND CANCER WITH PROTEASE INHIBITORS” (Lundquist Institute for Biomedical Innovation at …, priority 2023, published 2026)
